In patent US9505834B2, “Methods for controlling the galactosylation profile of recombinantly-expressed proteins” (AbbVie Inc., priority 2011, dated 2016):

Legend:
Format in all cases: cell-based, Chinese Hamster
[1] = tested on: adalimumab-producing CHO cell line; assay: Example 2 culture growth & productivity, HyClone CDM4CHO; conditions: galactose 0 to 40 mM and/or manganese chloride up to 10 μM
Experimental: (§1) For all studies with CHO cell lines described throughout this invention, samples were collected daily and measured for cell density and viability using a Cedex cell counter. Retention samples for titer analysis via Poros A method were collected by centrifugation at 12,000 RPM for 5 min when the culture viability began declining. The cultures were harvested by collecting 125 mL aliquots and centrifuging at 3,000 RPM for 30 min when culture viability was near or below 50%. All supernatants were stored at −80° C. until analysis.
(§2) Growth and production media for the adalimumab-producing CHO cell line were prepared using Thermo Scientific HyClone chemically defined media CDM4CHO without L-glutamine (Catalogue #SH30558.02). […] All media were filtered through Corning 0.5 L or 1 L (0.22 μm PES) filter systems and stored at 4° C. until use.
(§3) Upon thaw, cells were adapted to and expanded in HyClone CDM4CHO media for 5 (2 to 3 day each) passages in a combination of 250 mL, 500 mL, and 1000 mL Corning vented non-baffled shake flasks. Production cultures were initiated in duplicate 500 mL Corning vented non-baffled shake flasks (200 mL working volume) at an initial VCD of approximately 0.5×10^6 cells/mL. Cultures were maintained on orbital shakers at 110 RPM in a dry incubator at 35° C. and 5% CO2. […]

[2] = tested on: CHO cell line producing mAb #1; assay: Example 7 oligosaccharide analysis, CDM GIA-1, batch shake flasks
Experimental: as §1
(§4) For all studies, the harvest samples were Protein A purified and prepared for the oligosaccharide assay using the following procedures. As a first step in the process of establishing the identity and quantifying the oligosaccharides, they are released from the protein by enzymatic digestion with N-glycanase. Once the glycans are released, the free reducing end of each glycan is labeled by reductive amination with a fluorescent tag, 2-aminobenzamide (2-AB). The resulting labeled glycans are separated by normal-phase HPLC (NP-HPLC) in acetonitrile: 50 mM ammonium formate, pH 4.4, and detected by a fluorescence detector. Quantitation is based on the relative area percent of detected sugars. Throughout this invention, the relative area percentages of the agalactosyl fucosylated biantennary oligosaccharides, denoted as NGA2F+NGA2F-GlcNAc sum, and the galactose-containing fucosylated biantennary oligosaccharides NA1F+NA2F sum are reported and discussed.
Growth and production media for the CHO cell line producing mAb #1 were prepared using a proprietary Life Technologies Gibco chemically defined media, GIA-1. […] All media were filtered through Corning 0.5 L or 1 L filter systems (0.22 μm PES) and stored at 4° C. until use.
as §3, with “were” for “were adapted to and”, “expanded” for “expanded in HyClone CDM4CHO media”, “6 (3” for “5 (2 to 3”, “125” for “110”, “CO2. A glucose solution (1.25% (v/v) of 40% solution) was fed when the media glucose concentration fell below 3 g/L.” for “CO2.”

[3] = tested on: adalimumab-producing CHO cell line; assay: Example 2 oligosaccharide analysis, HyClone CDM4CHO, batch shake flasks
Experimental: as §1, §4, §2
as §3, with “CO2. A glucose solution (1.25% (v/v) of 40% solution) was fed when the media glucose concentration fell below 3 g/L.” for “CO2.”

[4] = tested on: CHO cell line producing mAb #2; assay: Example 8 oligosaccharide analysis, CDM GIA-1, fed-batch 3 L bioreactors
Experimental: as §1, §4
Growth and production media for the mAb #2 producing CHO cell line were prepared using the proprietary Life Technologies Gibco chemically defined media, GIA-1.
Upon thaw, cells were expanded in Corning vented non-baffled shake flasks maintained on orbital shakers at 140 RPM, and in 10 L cell bags (2 L working volume) maintained at 25 RPM, 7° angle, 0.25 SLPM airflow in a dry incubator at 36° C. and 5% CO2. Production cultures were initiated in 3 L bioreactors (1.5 L initial working volume) at 36° C., 25% dissolved oxygen, 200 RPM, and pH 7.0. The chemically-defined feed from Life Technologies Gibco JCL-5 was added as follows: 3% (v/v)—day 3, 5%—day 5, 7%—day 7, 10%—day 9, and 10%—day 11. […] Bioreactors were harvested at viability of approximately 70% or below or on production day 15, whichever condition occurred first.
Galactose was supplemented at 0, 15, 30, and 60 mM concentrations in both production and feed media.

[5] = tested on: adalimumab-producing CHO cell line #2; assay: Example 4 oligosaccharide analysis, CDM GIA-1, batch shake flasks
Experimental: as §1, §4
Growth and production media for the adalimumab-producing CHO cell line #2 were prepared using a proprietary Life Technologies Gibco chemically defined media, GIA-1. […] All media were filtered through Corning 0.5 L or 1 L filter systems (0.22 μm PES) and stored at 4° C. until use.
Upon thaw, cells were expanded for 5 to 8 (2 to 3 day each) passages in a combination of 250 mL, 500 mL, and 1000 mL Corning vented non-baffled shake flasks. Production cultures were initiated in duplicate 500 mL Corning vented non-baffled shake flasks (200 mL working volume) at an initial VCD of approximately 0.5×10^6 cells/mL. Cultures were maintained on orbital shakers at 180 RPM in a dry incubator at 35° C. and 5% CO2. A glucose solution (1.25% (v/v) of 40% solution) was fed when the media glucose concentration fell below 3 g/L.
Galactose was supplemented at the following levels in production media: 0, 10, and 20 mM. […] This study was run in 2 blocks.

[6] = manganese chloride alone, range 0 to 40 μM
[7] = manganese chloride alone, range 0 to 75 μM

With “Manganese (II) Chloride [manganese chloride]” as the molecule, how does the “cell growth and viability profiles” value [1] read?
Its value is “comparable to the control cultures”.

And the “decrease in the NGA2F+NGA2F-GlcNac sum” value ([2]; 40 μM manganese chloride alone)?
Its value is 20%.

What about the “maximum decrease in the NGA2F+NGA2F-GlcNac sum” value (“maximum decrease” below) [2, 6] of the same molecule?
The value was 26%.

And the “maximum increase in the NA1F+NA2F sum” value [2, 6]?
Its value is 27%.

What about the “decrease in the NGA2F+NGA2F-GlcNac sum” value ([3]; 40 μM manganese chloride alone) of the same molecule?
The value was 5%.

And the “maximum decrease” value [3, 6]?
The value was 5%.

What about the “maximum increase in the NA1F+NA2F sum” value [3, 6] of the same molecule?
The value was 4%.

What about the “decrease in the NGA2F+NGA2F-GlcNac sum” value ([4]; 25 μM manganese chloride alone) of the same molecule?
The value was 10%.

And the “decrease in the NGA2F+NGA2F-GlcNac sum” value ([4]; 50 μM manganese chloride alone)?
Its value is 18%.

And the “maximum decrease” value [4, 7]?
Its value is 18%.

And the “maximum increase in the NA1F+NA2F sum” value [4, 7]?
The value was 16%.

And the “decrease in the NGA2F+NGA2F-GlcNac sum” value ([5]; 10 μM manganese chloride alone)?
Its value is 18%.

And the “maximum decrease” value ([5]; 20 μM manganese chloride alone)?
Its value is 22%.

What about the “maximum increase in the NA1F+NA2F sum” value ([5]; 20 μM manganese chloride alone) of the same molecule?
Its value is 23%.

What does the source list for `O=C[C@H](O)[C@@H](O)[C@@H](O)[C@H](O)CO` [galactose, D(+)Galactose]?
cell growth and viability profiles [1]: comparable to the control cultures; decrease in the NGA2F+NGA2F-GlcNac sum ([2]; 40 mM galactose alone): 12%; maximum decrease in the NGA2F+NGA2F-GlcNac sum ([2]; galactose alone up to 40 mM): 12%; maximum increase in the NA1F+NA2F sum ([2]; galactose alone up to 40 mM): 13%; decrease in the NGA2F+NGA2F-GlcNac sum ([3]; 40 mM galactose alone): 6%; increase in the NA1F+NA2F sum ([3]; galactose alone up to 40 mM): 6%; maximum decrease in the NGA2F+NGA2F-GlcNac sum ([3]; galactose alone up to 40 mM): 6%; decrease in the NGA2F+NGA2F-GlcNac sum ([4]; 15 mM galactose alone): 7%; decrease in the NGA2F+NGA2F-GlcNac sum ([4]; 30 mM galactose alone): 12%; maximum decrease in the NGA2F+NGA2F-GlcNac sum ([4]; galactose alone up to 60 mM): 12%; maximum increase in the NA1F+NA2F sum ([4]; galactose alone up to 60 mM): 11%; decrease in the NGA2F+NGA2F-GlcNac sum ([5]; 10 mM galactose alone): 6%; maximum decrease in the NGA2F+NGA2F-GlcNac sum ([5]; 20 mM galactose alone): 9%; maximum increase in the NA1F+NA2F sum ([5]; 20 mM galactose alone): 10%
